Laboratory results as given in ChEMBL document CHEMBL1125696, “Synthesis and structure-activity relationships of deltorphin analogues” (J Med Chem, 1991).
Non-standard residues stand in square brackets, D forms with d. Residues, ends and D or L forms follow the SMILES beside them. Abu = CC[C@H](N)C(=O)O

What was measured:
[1] = molecular target: T1, Delta-type opioid receptor (Mus musculus, UniProt P32300); experiment: Compound is tested in vitro in mouse vas deferens (MVD) assay mediated by Opioid receptor delta 1; assay type: tissue-based
T1 sequence (P32300 whole entry): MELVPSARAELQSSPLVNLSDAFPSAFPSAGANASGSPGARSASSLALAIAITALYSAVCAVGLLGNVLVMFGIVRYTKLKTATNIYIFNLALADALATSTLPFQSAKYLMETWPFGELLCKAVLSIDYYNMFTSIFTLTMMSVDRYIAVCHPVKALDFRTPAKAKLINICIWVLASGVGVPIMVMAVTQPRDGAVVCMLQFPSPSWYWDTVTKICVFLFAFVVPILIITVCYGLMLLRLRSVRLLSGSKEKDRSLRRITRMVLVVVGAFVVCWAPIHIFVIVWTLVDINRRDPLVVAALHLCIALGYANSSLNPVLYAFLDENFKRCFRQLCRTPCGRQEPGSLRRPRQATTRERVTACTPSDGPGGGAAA

Mu-type opioid receptor [2] = molecular target: T2, Mu-type opioid receptor (Cavia porcellus, UniProt P97266); experiment: Compound is tested in vitro in guinea pig ileum (GPI) assay mediated by Opioid receptor mu 1; assay type: tissue-based
T2 sequence (P97266 whole entry): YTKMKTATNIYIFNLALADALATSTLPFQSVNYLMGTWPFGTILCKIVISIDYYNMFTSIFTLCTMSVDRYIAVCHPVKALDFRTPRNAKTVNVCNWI

[3] = IC50 ratio is [3H]- DAGO/[3H]-DSLET
[4] = (§1) IC50 ratio is GPI/MVD
Mu-type opioid receptor [5] = molecular target: T3, Mu-type opioid receptor (Rattus norvegicus, UniProt P33535); experiment: Opioid receptor mu 1 binding affinity in rat brain membrane preparations by the displacement of [3H]- DAGO; assay type: cell membranes
T3 sequence (P33535 whole entry): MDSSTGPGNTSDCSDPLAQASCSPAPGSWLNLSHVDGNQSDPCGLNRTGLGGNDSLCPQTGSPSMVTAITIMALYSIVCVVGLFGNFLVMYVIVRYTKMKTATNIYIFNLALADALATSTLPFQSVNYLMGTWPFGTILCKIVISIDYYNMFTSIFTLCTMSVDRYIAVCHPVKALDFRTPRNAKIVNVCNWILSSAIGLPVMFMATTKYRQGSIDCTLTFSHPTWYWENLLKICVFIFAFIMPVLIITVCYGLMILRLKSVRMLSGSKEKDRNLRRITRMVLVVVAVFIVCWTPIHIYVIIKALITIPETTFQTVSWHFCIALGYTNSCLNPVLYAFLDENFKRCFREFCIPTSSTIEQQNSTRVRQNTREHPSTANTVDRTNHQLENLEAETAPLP

[6] = molecular target: T4, Delta-type opioid receptor (Rattus norvegicus, UniProt P33533); experiment: Opioid receptor binding affinity in rat brain membrane preparations by the displacement of [3H]DSLET (Opioid receptor delta 1-selective radioligand); assay type: cell membranes
T4 sequence (P33533 whole entry): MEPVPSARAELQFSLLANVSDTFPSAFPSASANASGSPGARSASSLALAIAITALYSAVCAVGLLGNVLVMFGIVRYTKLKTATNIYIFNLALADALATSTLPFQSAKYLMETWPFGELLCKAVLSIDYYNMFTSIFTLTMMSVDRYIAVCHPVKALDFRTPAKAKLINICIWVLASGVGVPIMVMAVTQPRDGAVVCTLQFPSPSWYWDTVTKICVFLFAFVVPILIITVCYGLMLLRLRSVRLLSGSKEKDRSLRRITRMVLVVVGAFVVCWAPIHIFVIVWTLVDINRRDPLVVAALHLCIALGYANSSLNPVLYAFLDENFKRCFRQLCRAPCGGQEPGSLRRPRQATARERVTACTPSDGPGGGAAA

[7] = molecular target: T4, Delta-type opioid receptor; experiment: Opioid receptor binding affinity in rat brain membrane preparations by the displacement of [3H]- DPDPE (Opioid receptor delta 1-selective radioligand); assay type: cell membranes
Mu-type opioid receptor [8] = molecular target: T2, Mu-type opioid receptor; experiment: Inhibition of opioid receptor mu in guinea pig ileum (GPI); assay type: tissue-based
Mu-type opioid receptor [9] = molecular target: T3, Mu-type opioid receptor; experiment: Displacement of [3H]- DAGO from opioid receptor mu in rat brain membrane; assay type: cell membranes
[10] = molecular target: T4, Delta-type opioid receptor; experiment: Displacement of [3H]DSLET from delta opioid receptor in rat brain membrane; assay type: cell membranes
[11] = as §1; assay type: functional
[12] = molecular target: T1, Delta-type opioid receptor; experiment: In vitro opioid receptor delta mediated mouse vas deferens (MVD) assay; assay type: tissue-based
[13] = molecular target: T4, Delta-type opioid receptor; experiment: Displacement of [3H]- DPDPE from delta opioid receptor in rat brain membrane; assay type: cell membranes

Row | Compound | IC50 [1] | IC50 (Mu-type opioid receptor [2]) | Ratio [3] | Ratio [4] | IC50 (Mu-type opioid receptor [5]) | IC50 [6] | IC50 [7] | IC50 (Mu-type opioid receptor [8]) | IC50 (Mu-type opioid receptor [9]) | IC50 [10] | Ratio [11] | IC50 [12] | IC50 [13]
1 | H-YAFQVVG-NH2 | 1.51 nM | 280 nM | 73 | 185 | 280 nM | 3.8 nM |  |  |  |  |  |  | 
2 | H-YMFDLMD-OH | 380 nM | > 15000 nM | > 375 | > 40 | > 30000 nM | 80 nM | 55 nM |  |  |  |  |  | 
3 | H-YMFGLMD-NH2 | 1.65 nM | 100 nM | 11.5 | 62 | 161 nM | 14 nM | 8 nM |  |  |  |  |  | 
4 | H-YMFYLMD-NH2 |  |  |  |  |  |  |  | 100 nM | 158 nM | 9.1 nM | 100 | 1.02 nM | 5.9 nM
5 | C[C@@H](NC(=O)[C@@H](N)Cc1ccc(O)cc1)C(=O)N[C@@H](Cc1ccccc1)C(=O)NCC(=O)N[C@@H](Cc1ccc(O)cc1)C(=O)N1CCC[C@H]1C(=O)N[C@@H](CO)C(N)=O [DERMORPHIN] |  |  |  |  |  |  |  | 1.41 nM | 3.2 nM |  |  |  | 
6 | H-YAFDV-NH2 |  |  |  |  |  |  |  | 650 nM | 640 nM | 99 nM |  | 220 nM | 
7 | H-YAFDVV-NH2 |  |  |  |  |  |  |  | 320 nM | 700 nM | 3.9 nM |  | 7.5 nM | 
8 | CC[C@H](NC(=O)[C@@H](NC(=O)CNC(=O)[C@H](Cc1ccccc1)NC(=O)[C@H](C)NC(=O)[C@@H](N)Cc1ccc(O)cc1)C(C)C)C(=O)N[C@@H](CC(=O)O)C(N)=O (H-YAFGV[Abu]D-NH2) | 11.1 nM | 130 nM |  | 12 | 130 nM | 29.5 nM |  |  |  |  |  |  | 
9 | CC(C)[C@H](NC(=O)[C@H](CC(=O)O)NC(=O)[C@H](Cc1ccccc1)NC(=O)[C@H](C)NC(=O)[C@@H](N)Cc1ccc(O)cc1)C(=O)N[C@H](C(=O)NCC(N)=O)C(C)C |  |  |  |  |  |  |  | 420 nM | 910 nM | 1.5 nM |  |  | 1.1 nM
10 | H-YMFHLMN-OH |  |  |  |  |  |  |  | 350 nM | 660 nM | 22 nM | 39 | 9 nM | 16 nM
11 | C[C@H](NC(=O)[C@@H](N)Cc1ccc(O)cc1)C(=O)N[C@@H](Cc1ccccc1)C(=O)N[C@@H](CC(=O)O)C(N)=O (H-YAFD-NH2) |  |  |  |  |  |  |  | 160 nM | 100 nM | 960 nM |  | 1000 nM | 
12 | CC[C@H](NC(=O)[C@H](CCSC)NC(=O)[C@H](CC(C)C)NC(=O)[C@H](Cc1c[nH]cn1)NC(=O)[C@H](Cc1ccccc1)NC(=O)[C@H](CCSC)NC(=O)[C@@H](N)Cc1ccc(O)cc1)C(N)=O (H-YMFHLM[Abu]-NH2) |  |  |  |  |  |  |  |  |  |  | 200 |  | 
13 | CC(C)[C@H](NC(=O)[C@H](CCC(=O)O)NC(=O)[C@H](Cc1ccccc1)NC(=O)[C@H](C)NC(=O)[C@@H](N)Cc1ccc(O)cc1)C(=O)N[C@H](C(=O)NCC(N)=O)C(C)C |  |  |  |  |  |  |  | 5200 nM |  | 3.8 nM |  |  | 3.6 nM
14 | H-YMFKLMD-NH2 | 1000 nM | 7500 nM | 11 | 7.5 | 6000 nM | 550 nM | 380 nM |  |  |  |  |  | 
15 | H-YMFHLMN-NH2 [listing 1 of 2 here] |  |  |  |  |  |  |  | 245 nM | 380 nM | 20 nM |  | 8 nM | 18 nM
16 | H-YMFHLMN-NH2 [listing 2 of 2 here] |  |  |  |  |  |  |  |  |  |  | 30 |  | 
17 | CC[C@H](NC(=O)[C@H](CCSC)NC(=O)[C@H](CC(C)C)NC(=O)[C@H](Cc1cnc[nH]1)NC(=O)[C@H](Cc1ccccc1)NC(=O)[C@H](CCSC)NC(=O)[C@@H](N)Cc1ccc(O)cc1)C(N)=O (H-YMFHLM[Abu]-NH2) |  |  |  |  |  |  |  | 300 nM | 360 nM | 18 nM |  | 1.5 nM | 7.4 nM
18 | CC(C)[C@H](NC(=O)[C@H](CCC(=O)O)NC(=O)[C@H](Cc1ccccc1)NC(=O)[C@H](C)NC(=O)[C@@H](N)Cc1ccc(O)cc1)C(=O)N[C@H](C(=O)NCC(=O)O)C(C)C [DELTORPHINE II] |  |  |  |  |  |  |  | 9000 nM |  | 184 nM |  | 5.55 nM | 
19 | CSCC[C@H](NC(=O)[C@H](CC(C)C)NC(=O)[C@H](Cc1cnc[nH]1)NC(=O)[C@H](Cc1ccccc1)NC(=O)[C@@H](CCSC)NC(=O)[C@@H](N)Cc1ccc(O)cc1)C(=O)N[C@@H](CC(=O)O)C(N)=O (H-Y[dM]FHLMD-NH2) |  |  |  |  |  |  |  | 1900 nM | 1200 nM | 9 nM |  | 1.3 nM | 6.1 nM
20 | H-YMFFLMD-NH2 |  |  |  |  |  |  |  | 75 nM | 450 nM | 15 nM | 47 | 1.6 nM | 11 nM
21 | H-YMFHLMD-OH |  |  |  |  |  |  |  | 6000 nM | 1500 nM | 4.5 nM |  | 1.3 nM | 2.4 nM
